These results are taken from US20120064020A1, “NOVEL COMPOSITION” (priority 2009, published 2012).

This assay concerns IL-8. The assay can be described thus: Expression of IL-8 by epidermal human skin model (EST-1000) after IL-1alpha stimulation. The conditions noted are these: Table 7, 2 wt.-% in vehicle. It is filed as cell-based. The protocol: The Expression of IL-8 by epidermal human skin model after IL-1alpha stimulation has been assessed using 3D-Reconstituted Epidermis Models (EST-1000) (Cellsystems GmbH, St. Katharinen, Germany). The EST-1000 samples were equilibrated over night at 37° C. in a 5% CO^2 atmosphere according to manufacturer's instructions. Then, the EST-1000 samples were stimulated by addition of 10 ng/ml IL-1alpha (Peprotech, UK) to the culture medium.
Afterwards, one sample was treated with the vehicle (i.e. squalane, e.g. commercially available under the tradename Fitoderm®), whereas the other sample was treated with a mixture consisting of the vehicle comprising 2 wt.-% of the mixture of example 1 by topical addition to the tissue samples. At distinct time points, 200 ul medium samples were taken and frozen for further analysis. As can be retrieved from the results presented in table, the expression of the pro-inflammatory cytokine IL-8 by the epidermal human skin model (EST-1000) is suppressed by the addition of the composition according to example 1 in a dose dependent manner.
Furthermore, the expression of IL-8 by epidermal human skin model after IL-1alpha stimulation was assessed as outlined above using the single compounds CLA, Syn Coll®, spent grain wax as well as mixtures thereof.

For the substance Conjugated linoleic acid [CLA], the “Expression of cytokine IL-8, T = 24 h” value (T = 24 h) came to 8161. Further, where the note is “t = 0 h”, the “Expression of cytokine IL-8, t = 0 h” value is reported as 61. The “Expression of cytokine IL-8, t = 2 h” value (t = 2 h) was 2536. Further, the “Expression of cytokine IL-8, t = 4 h” value (t = 4 h) amounted to 5056. In addition, the “Expression of cytokine IL-8, t = 8 h” value (t = 8 h) came to 5805.
